According to patent US8492376B2, “Heteroaryl-cyclohexyl-tetraazabenzo[e]azulenes” (Hoffmann-La Roche Inc., priority 2010, dated 2013):
Where a name gives a salt, the structure may show the parent alone.

These compounds were tested against T1, human V1a receptor (Homo sapiens, UniProt P37288) (assay: human V1a receptor binding studies (3H-Vasopressin, SPA beads)). Conditions: membranes from HEK293 cells transiently transfected with human V1a receptor, Ki calculated from IC50 by the Cheng-Prussoff equation, read-out: pKi (hV1a) (converted).
T1 construct: expressed in transfected cells; host or cells: HEK293 cells, transiently transfected; cell membranes
Protocol: The human V1a receptor was cloned by RT-PCR from total human liver RNA. The coding sequence was subcloned in an expression vector after sequencing to confirm the identity of the amplified sequence. […] Cell membranes were prepared from HEK293 cells transiently transfected with the expression vector and grown in 20 liter fermenters with the following protocol.
50 g of cells are resuspended in 30 ml freshly prepared ice cold Lyses buffer (50 mM HEPES, 1 mM EDTA, 10 mM magnesium dichloride adjusted to pH=7.4+complete cocktail of protease inhibitor (Roche Diagnostics)). Homogenized with Polytron for 1 min and solicited on ice for 2×2 minutes at 80% intensity (Vibrate solicitor). The preparation is centrifuged 20 min at 500 g at 4° C., the pellet is discarded and the supernatant centrifuged 1 hour at 43′000 g at 4° C. (19′000 rpm). The pellet is resuspended in 12.5 ml Lyses buffer+12.5 ml sucrose 20% and homogenized using a Polytron for 1-2 min. The protein concentration is determined by the Bradford method and aliquots are stored at −80° C. until use. For binding studies 60 mg Yttrium silicate SPA beads (Habersham®) are mixed with an aliquot of membrane in binding buffer (50 mM Tris, 120 mM sodium chloride, 5 mM potassium chloride, 2 mM calcium dichloride, 10 mM magnesium dichloride) for 15 minutes with mixing. 50 μl of bead/membrane mixture is then added to each well of a 96 well plate, followed by 50 μl of 4 nM 3H-Vasopressin (American Radiolabeled Chemicals). For total binding measurement 100 μl of binding buffer are added to the respective wells, for non-specific binding 100 μl of 8.4 mM cold vasopressin and for compound testing 100 μl of a serial dilution of each compound in 2% dimethyl sulfoxide. The plate is incubated 1 h at room temperature, centrifuged 1 min at 1000 g and counted on a Packard Top-Count. Non-specific binding counts are subtracted from each well and data is normalized to the maximum specific binding set at 100%. To calculate an IC50 the curve is fitted using a non-linear regression model (XLfit) and the Ki is calculated using the Cheng-Prussoff equation.

T1 sequence (P37288 whole entry): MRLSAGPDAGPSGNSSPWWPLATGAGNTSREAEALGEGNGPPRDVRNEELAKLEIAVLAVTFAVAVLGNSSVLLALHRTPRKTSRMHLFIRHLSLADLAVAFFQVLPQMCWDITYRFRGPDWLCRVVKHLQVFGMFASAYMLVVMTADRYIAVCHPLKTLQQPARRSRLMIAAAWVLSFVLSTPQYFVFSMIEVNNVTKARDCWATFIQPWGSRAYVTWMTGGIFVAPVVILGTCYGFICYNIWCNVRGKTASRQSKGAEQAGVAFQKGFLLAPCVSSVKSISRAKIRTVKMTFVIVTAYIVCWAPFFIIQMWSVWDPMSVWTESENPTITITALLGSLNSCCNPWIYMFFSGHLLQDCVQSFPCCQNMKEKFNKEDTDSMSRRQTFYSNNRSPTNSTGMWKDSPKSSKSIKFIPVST

Row | Structure (SMILES) | Ki [nM]
1 | CC(C)(C)OC(=O)N1Cc2cc(Cl)ccc2-n2c(nnc2[C@H]2CC[C@H](c3ncccc3F)CC2)C1 [Example 28, trans-8-Chloro-1-[4-(3-fluoro-pyridin-2-yl)-cyclohexyl]-4H,6H-2,3,5,10b-tetraaza-benzo[e]azulene-5-carboxylic acid tert-butyl ester] | 0.2
2 | Fc1cccnc1[C@H]1CC[C@H](c2nnc3n2-c2ccc(Cl)cc2CNC3)CC1 [Example 29, trans-8-Chloro-1-[4-(3-fluoro-pyridin-2-yl)-cyclohexyl]-5,6-dihydro-4H-2,3,5,10b-tetraaza-benzo[e]azulene] | 1.51
3 | CN1Cc2cc(Cl)ccc2-n2c(nnc2[C@H]2CC[C@H](c3ncccc3F)CC2)C1 [Example 30, trans-8-Chloro-1-[4-(3-fluoro-pyridin-2-yl)-cyclohexyl]-5-methyl-5,6-dihydro-4H-2,3,5,10b-tetraaza-benzo[e]azulene] | 0.603
4 | CCN1Cc2cc(Cl)ccc2-n2c(nnc2[C@H]2CC[C@H](c3ncccc3F)CC2)C1 [Example 31, trans-8-Chloro-5-ethyl-[4-(3-fluoro-pyridin-2-yl)-cyclohexyl]-5,6-dihydro-4H-2,3,5,10b-tetraaza-benzo[e]azulene] | 0.562
5 | CC(C)N1Cc2cc(Cl)ccc2-n2c(nnc2[C@H]2CC[C@H](c3ncccc3F)CC2)C1 [Example 32, trans-8-Chloro-5-isopropyl-[4-(3-fluoro-pyridin-2-yl)-cyclohexyl]-5,6-dihydro-4H-2,3,5,10b-tetraaza-benzo[e]azulene] | 0.562
6 | Fc1cccnc1[C@H]1CC[C@H](c2nnc3n2-c2ccc(Cl)cc2CN(C2CCC2)C3)CC1 [Example 33, trans-8-Chloro-5-cyclobutyl-[4-(3-fluoro-pyridin-2-yl)-cyclohexyl]-5,6-dihydro-4H-2,3,5,10b-tetraaza-benzo[e]azulene] | 0.302
7 | Fc1cccnc1[C@H]1CC[C@H](c2nnc3n2-c2ccc(Cl)cc2CN(CC(F)F)C3)CC1 [Example 34, trans-8-Chloro-5-(2,2-difluoro-ethyl)-[4-(3-fluoro-pyridin-2-yl)-cyclohexyl]-5,6-dihydro-4H-2,3,5,10b-tetraaza-benzo[e]azulene] | 0.186
8 | COCCN1Cc2cc(Cl)ccc2-n2c(nnc2[C@H]2CC[C@H](c3ncccc3F)CC2)C1 [Example 35, trans-8-Chloro-1-[4-(3-fluoro-pyridin-2-yl)-cyclohexyl]-5-(2-methoxy-ethyl)-5,6-dihydro-4H-2,3,5,10b-tetraaza-benzo[e]azulene] | 0.977
9 | CNCCN1Cc2cc(Cl)ccc2-n2c(nnc2[C@H]2CC[C@H](c3ncccc3F)CC2)C1 [Example 36, trans-(2-{8-Chloro-1-[4-(3-fluoro-pyridin-2-yl)-cyclohexyl]-4H,6H-2,3,5,10b-tetraaza-benzo[e]azulen-5-yl}-ethyl)-methyl-amine] | 28.2
10 | CC(=O)N1Cc2cc(Cl)ccc2-n2c(nnc2[C@H]2CC[C@H](c3ncccc3F)CC2)C1 [Example 37, trans-1-{8-Chloro-1-[4-(3-fluoro-pyridin-2-yl)-cyclohexyl]-4H,6H-2,3,5,10b-tetraaza-benzo[e]azulen-5-yl}-ethanone] | 1.62
11 | O=C(CO)N1Cc2cc(Cl)ccc2-n2c(nnc2[C@H]2CC[C@H](c3ncccc3F)CC2)C1 [Example 38, trans-1-{8-Chloro-1-[4-(3-fluoro-pyridin-2-yl)-cyclohexyl]-4H,6H-2,3,5,10b-tetraaza-benzo[e]azulen-5-yl}-2-hydroxy-ethanone] | 2.29
12 | CN(C)CC(=O)N1Cc2cc(Cl)ccc2-n2c(nnc2[C@H]2CC[C@H](c3ncccc3F)CC2)C1 [Example 39, trans-1-{8-Chloro-1-[4-(3-fluoro-pyridin-2-yl)-cyclohexyl]-4H,6H-2,3,5,10b-tetraaza-benzo[e]azulen-5-yl}-2-dimethylamino-ethanone formate] | 2.51
13 | CS(=O)(=O)N1Cc2cc(Cl)ccc2-n2c(nnc2[C@H]2CC[C@H](c3ncccc3F)CC2)C1 [Example 40, trans-8-Chloro-1-[4-(3-fluoro-pyridin-2-yl)-cyclohexyl]-5-methanesulfonyl-5,6-dihydro-4H-2,3,5,10b-tetraaza-benzo[e]azulene] | 0.178
14 | CN(C)S(=O)(=O)N1Cc2cc(Cl)ccc2-n2c(nnc2[C@H]2CC[C@H](c3ncccc3F)CC2)C1 [Example 41, trans-8-Chloro-1-[4-(3-fluoro-pyridin-2-yl)-cyclohexyl]-4H,6H-2,3,5,10b-tetraaza-benzo[e]azulene-5-sulfonic acid dimethylamide] | 0.603
15 | CC(C)(C)OC(=O)N1Cc2cc(F)ccc2-n2c(nnc2[C@H]2CC[C@H](c3ncccc3F)CC2)C1 [Example 42, trans-8-Fluoro-[4-(3-fluoro-pyridin-2-yl)-cyclohexyl]-4H,6H-2,3,5,10b-tetraaza-benzo[e]azulene-5-carboxylic acid tert-butyl ester] | 0.525
16 | Fc1ccc2c(c1)CNCc1nnc([C@H]3CC[C@H](c4ncccc4F)CC3)n1-2 [Example 43, trans-8-Fluoro-[4-(3-fluoro-pyridin-2-yl)-cyclohexyl]-5,6-dihydro-4H-2,3,5,10b-tetraaza-benzo[e]azulene] | 24.5
17 | CN1Cc2cc(F)ccc2-n2c(nnc2[C@H]2CC[C@H](c3ncccc3F)CC2)C1 [Example 44, trans-8-Fluoro-[4-(3-fluoro-pyridin-2-yl)-cyclohexyl]-5-methyl-5,6-dihydro-4H-2,3,5,10b-tetraaza-benzo[e]azulene] | 8.91
18 | CC(C)(C)OC(=O)N1Cc2cc(Cl)ccc2-n2c(nnc2[C@H]2CC[C@@H](c3ncccc3F)CC2)C1 [Example 45, cis-8-Chloro-1-[4-(3-fluoro-pyridin-2-yl)-cyclohexyl]-4H,6H-2,3,5,10b-tetraaza-benzo[e]azulene-5-carboxylic acid tert-butyl ester] | 5.01
19 | Fc1cccnc1[C@H]1CC[C@@H](c2nnc3n2-c2ccc(Cl)cc2CNC3)CC1 [Example 46, cis-8-Chloro-1-[4-(3-fluoro-pyridin-2-yl)-cyclohexyl]-5,6-dihydro-4H-2,3,5,10b-tetraaza-benzo[e]azulene] | 200
20 | CN1Cc2cc(Cl)ccc2-n2c(nnc2[C@H]2CC[C@@H](c3ncccc3F)CC2)C1 [Example 47, cis-8-Chloro-1-[4-(3-fluoro-pyridin-2-yl)-cyclohexyl]-5-methyl-5,6-dihydro-4H-2,3,5,10b-tetraaza-benzo[e]azulene] | 25.1
21 | CC(C)(C)OC(=O)N1Cc2cc(Cl)ccc2-n2c(nnc2[C@H]2CC[C@H](c3cccnc3)CC2)C1 [Example 48, trans-8-Chloro-1-(4-pyridin-3-yl-cyclohexyl)-4H,6H-2,3,5,10b-tetraaza-benzo[e]azulene-5-carboxylic acid tert-butyl ester] | 0.603
22 | Clc1ccc2c(c1)CNCc1nnc([C@H]3CC[C@H](c4cccnc4)CC3)n1-2 [Example 49, trans-8-Chloro-1-(4-pyridin-3-yl-cyclohexyl)-5,6-dihydro-4H-2,3,5,10b-tetraaza-benzo[e]azulene] | 33.9
23 | CN1Cc2cc(Cl)ccc2-n2c(nnc2[C@H]2CC[C@H](c3cccnc3)CC2)C1 [Example 50, trans-8-Chloro-5-methyl-1-(4-pyridin-3-yl-cyclohexyl)-5,6-dihydro-4H-2,3,5,10b-tetraaza-benzo[e]azulene] | 4.57
24 | CC(C)(C)OC(=O)N1Cc2cc(Cl)ccc2-n2c(nnc2[C@H]2CC[C@H](c3cccnc3Cl)CC2)C1 [Example 51, trans-8-Chloro-1-[4-(2-chloro-pyridin-3-yl)-cyclohexyl]-4H,6H-2,3,5,10b-tetraaza-benzo[e]azulene-5-carboxylic acid tert-butyl ester] | 2.19
25 | Clc1ccc2c(c1)CNCc1nnc([C@H]3CC[C@H](c4cccnc4Cl)CC3)n1-2 [Example 52, trans-8-Chloro-1-[4-(2-chloro-pyridin-3-yl)-cyclohexyl]-5,6-dihydro-4H-2,3,5,10b-tetraaza-benzo[e]azulene] | 81.3
26 | CN1Cc2cc(Cl)ccc2-n2c(nnc2[C@H]2CC[C@H](c3cccnc3Cl)CC2)C1 [Example 53, trans-8-Chloro-1-[4-(2-chloro-pyridin-3-yl)-cyclohexyl]-5-methyl-5,6-dihydro-4H-2,3,5,10b-tetraaza-benzo[e]azulene] | 13.8
27 | CC(C)(C)OC(=O)N1Cc2cc(Cl)ccc2-n2c(nnc2[C@H]2CC[C@H](c3cccnc3F)CC2)C1 [Example 54, trans-8-Chloro-1-[4-(2-fluoro-pyridin-3-yl)-cyclohexyl]-4H,6H-2,3,5,10b-tetraaza-benzo[e]azulene-5-carboxylic acid tert-butyl ester] | 1
28 | Fc1ncccc1[C@H]1CC[C@H](c2nnc3n2-c2ccc(Cl)cc2CNC3)CC1 [Example 55, trans-8-Chloro-1-[4-(2-fluoro-pyridin-3-yl)-cyclohexyl]-5,6-dihydro-4H-2,3,5,10b-tetraaza-benzo[e]azulene] | 69.2
